ChEMBL document CHEMBL1142762, “Identification of 4-methyl-1,2,3,4,10,10a-hexahydropyrazino[1,2-a]indoles as 5-HT2C receptor agonists” (Bioorg Med Chem Lett, 2005)

What was measured:
[1] = molecular target: T1, 5-hydroxytryptamine receptor 2C (Homo sapiens) (UniProt P28335); test: Relative efficacy toward 5-HT2C receptor
T1 sequence (whole entry): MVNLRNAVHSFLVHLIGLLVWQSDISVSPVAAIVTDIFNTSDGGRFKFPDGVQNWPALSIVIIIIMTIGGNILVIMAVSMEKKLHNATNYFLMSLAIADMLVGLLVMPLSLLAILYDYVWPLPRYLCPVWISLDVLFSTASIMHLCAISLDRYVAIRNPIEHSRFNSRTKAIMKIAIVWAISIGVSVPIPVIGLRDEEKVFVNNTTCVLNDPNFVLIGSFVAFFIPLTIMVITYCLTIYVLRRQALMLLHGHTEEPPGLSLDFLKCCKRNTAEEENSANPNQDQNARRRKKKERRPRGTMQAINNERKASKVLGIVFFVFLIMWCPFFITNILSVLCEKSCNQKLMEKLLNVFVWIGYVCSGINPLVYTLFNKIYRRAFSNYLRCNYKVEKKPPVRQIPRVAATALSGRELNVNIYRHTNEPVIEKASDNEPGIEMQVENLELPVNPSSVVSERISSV

[2] = molecular target: 5-hydroxytryptamine receptor 2A (Homo sapiens, UniProt P28223); test: Binding affinity toward 5-HT2A receptor evaluated by displacement of [125I]DOI radioligand
Chain of 5-hydroxytryptamine receptor 2A (P28223 whole entry): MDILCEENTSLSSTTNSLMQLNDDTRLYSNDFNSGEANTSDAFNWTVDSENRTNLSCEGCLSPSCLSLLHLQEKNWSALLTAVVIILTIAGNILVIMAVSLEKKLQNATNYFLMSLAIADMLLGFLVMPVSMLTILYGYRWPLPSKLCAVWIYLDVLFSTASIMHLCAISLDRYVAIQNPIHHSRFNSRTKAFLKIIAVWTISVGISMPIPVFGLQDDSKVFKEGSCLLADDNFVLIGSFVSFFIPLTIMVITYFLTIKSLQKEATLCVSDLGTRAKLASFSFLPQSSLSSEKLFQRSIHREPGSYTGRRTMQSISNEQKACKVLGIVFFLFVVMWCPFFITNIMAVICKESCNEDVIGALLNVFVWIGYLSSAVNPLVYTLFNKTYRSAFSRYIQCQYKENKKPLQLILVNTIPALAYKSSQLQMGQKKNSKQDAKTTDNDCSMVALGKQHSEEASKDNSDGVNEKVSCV

[3] = molecular target: T2, 5-hydroxytryptamine receptor 2C (Homo sapiens, UniProt P28335); test: Binding affinity toward 5-HT2C receptor evaluated by displacement of [3H]5-HT radioligand
T2 sequence (P28335 whole entry): T1 sequence (whole entry)

[4] = molecular target: 5-hydroxytryptamine receptor 2B (Homo sapiens, UniProt P41595); test: Binding affinity toward 5-HT2B receptor evaluated by displacement of [3H]5-HT radioligand
Chain of 5-hydroxytryptamine receptor 2B (P41595 whole entry): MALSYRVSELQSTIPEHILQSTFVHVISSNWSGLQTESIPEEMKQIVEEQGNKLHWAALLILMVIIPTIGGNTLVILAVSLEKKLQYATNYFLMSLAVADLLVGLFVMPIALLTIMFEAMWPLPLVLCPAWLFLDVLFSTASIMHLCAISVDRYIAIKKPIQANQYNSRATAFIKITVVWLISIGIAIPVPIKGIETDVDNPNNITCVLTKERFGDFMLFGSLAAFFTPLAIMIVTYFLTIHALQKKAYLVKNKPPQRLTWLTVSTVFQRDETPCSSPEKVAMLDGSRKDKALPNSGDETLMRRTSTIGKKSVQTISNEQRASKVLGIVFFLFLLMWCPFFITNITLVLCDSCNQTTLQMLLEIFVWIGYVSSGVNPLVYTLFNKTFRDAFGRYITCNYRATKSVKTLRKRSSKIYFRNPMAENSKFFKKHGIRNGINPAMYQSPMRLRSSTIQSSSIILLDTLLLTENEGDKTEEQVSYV

SMILES	Efficacy [1] [%]	Ki [2] [nM]	Ki [3] [nM]	Ki [4] [nM]
C[C@@H]1CNC[C@@H]2Cc3ccccc3N21 (stereo in doubt; 8) [listing 1 of 2 here]	87			
Cc1c(Cl)ccc2c1N1CCNC[C@H]1C2	90	6.2	1.5	10
C[C@@H]1CNC[C@H]2Cc3ccc(C#N)cc3N21	77	110	3.8	90
Cc1ccc2c(c1)N1[C@@H](CNC[C@H]1C)C2	100	22	1.3	21
Cc1c(Cl)ccc2c1N1CCNC[C@@H]1C2	80	52	32	140
Cc1ccc2c(c1C)N1[C@H](CNC[C@H]1C)C2	91	102	9.5	67
C[C@H]1CNC[C@@H]2Cc3ccccc3N21	62	430	180	2600
Cc1c(Cl)ccc2c1N1[C@@H](CNC[C@H]1C)C2	98	2.6	0.3	3.2
C[C@@H]1CNC[C@H]2Cc3ccc(C(F)(F)F)cc3N21	94	7.5	1.4	11
Cc1ccc2c(c1C)N1[C@@H](CNC[C@H]1C)C2	96	34	1.7	13
Cc1cccc2c1N1[C@@H](CNC[C@H]1C)C2	100	43	2.6	59
C[C@@H]1CNC[C@@H]2Cc3ccccc3N21 (stereo in doubt; 7) [listing 1 of 2 here]		55	13	210
C[C@@H]1CNC[C@@H]2Cc3ccccc3N21 (stereo in doubt; 8) [listing 2 of 2 here]		61	22	160
CC(=O)Nc1ccc2c(c1)N1[C@@H](CNC[C@H]1C)C2	24	1100	680	960
C[C@@H]1CNC[C@H]2Cc3ccc(CO)cc3N21	97	290	34	250
C[C@@H]1CNC[C@@H]2Cc3ccccc3N21 (stereo in doubt; 7) [listing 2 of 2 here]	94			
Cc1c(Cl)ccc2c1N1[C@H](CNC[C@H]1C)C2	97	40	1.9	19
Clc1ccc2c(c1)N1CCNCC1C2 (stereo not drawn)	99	32	31	53
C[C@@H]1CNC[C@H]2Cc3ccccc3N21	97	1.9	2.2	15
